These results are taken from US9114117B2, “Compounds effective against cancer” (Ingo Schmidt-Wolf, priority 2009, dated 2015).

The conditions of data set [1]: cited from earlier work.
The test system of data set [2] is cell line OPM-2. The data set can be described thus: Relative viability of myeloma cell line OPM-2 by FACS analysis. It is filed as cell-based. The following applies: Homo sapiens, culture = 100%; for viability at 30 µM: 30 μM EA; for viability at 10 µM: 10 μM cic. From the text: (§1) The peripheral blood lymphocytes (PBLs) out of the PBMCs were selected for the FACS analysis (FIG. 5). A toxicity of the cells induced a shift from viable cells to apoptotic cells (FIG. 6, 7). If the drug or its concentration is very toxic, the cells appear addition-ally in a higher extent necrotic.
DMSO, the solvent of EA and cic, was given to the cell line OPM-2 in a ratio of 1:100, as control. The values are related to the culture-control and expressed as mean±standard error of the mean (SEM) taken from 5 separate measurements. In FIG. 11 (A) samples were measured after 24, 48 and 72 h. After 0 h, the time of execution, the relative viability was defined as 100% for all samples. In FIG. 11 (B) the relative viability values for the samples measured after 24, 48 and 72 h.

The subject of data set [3] is cell line LAM-53. Briefly: Relative apoptosis of cell line LAM-53 by FACS analysis. It is filed as cell-based. The following applies: culture = 0%.
Source text: as §1
DMSO, the solvent of EA and cic, was given to the cell line LAM-53 in a ratio of 1:100, as control. The values are related to the culture-control and expressed as mean±standard error of the mean (SEM) taken from 5 separate measurements. In FIG. 8 (A) samples were measured after 24, 48 and 72 h. After 0 h, the time of execution, the relative apoptosis was defined as 0% for all samples. In FIG. 8 (B) the relative apoptosis values for the samples measured after 24, 48 and 72 h.

Data set [4] deals with cell line Raji. The data set can be described thus: Relative viability of cell line Raji by FACS analysis. It is filed as cell-based. The following applies: Homo sapiens, culture = 100%; for viability at 30 µM: 30 μM EA; for viability at 10 µM: 10 μM cic.
Source text: as §1
DMSO, the solvent of EA and cic, was given to the cell line Raji in a ratio of 1:100, as control. The values are related to the culture-control and expressed as mean±standard error of the mean (SEM) taken from 5 separate measurements. In FIG. 13 (A) samples were measured after 24, 48 and 72 h. After 0 h, the time of execution, the relative viability was defined as 100% for all samples. In FIG. 13 (B) the relative viability values for the samples measured after 24, 48 and 72 h.

Data set [5] relates to cell line DHL-4. Briefly: Relative viability of cell line DHL-4 by FACS analysis. Format: cell-based. To be noted: culture = 100%; for viability at 30 µM: 30 μM EA; for viability at 10 µM: 10 μM cic.
Source text: as §1
DMSO, the solvent of EA and cic, was given to the cell line DHL-4 in a ratio of 1:100, as control. The values are related to the culture-control and expressed as mean±standard error of the mean (SEM) taken from 5 separate measurements. In FIG. 9 (A) samples were measured after 24, 48 and 72 h. After 0 h, the time of execution, the relative viability was defined as 100% for all samples. In FIG. 9 (B) the relative viability values for the samples measured after 24, 48 and 72 h.

Data set [6] concerns cell line OPM-2. Briefly: Relative apoptosis of myeloma cell line OPM-2 by FACS analysis. The following applies: culture = 0%. Format: cell-based.
Source text: as §1
DMSO, the solvent of EA and cic, was given to the cell line OPM-2 in a ratio of 1:100, as control. The values are related to the culture-control and expressed as mean±standard error of the mean (SEM) taken from 5 separate measurements. In FIG. 12 (A) samples were measured after 24, 48 and 72 h. After 0 h, the time of execution, the relative apoptosis was defined as 0% for all samples. In FIG. 12 (B) the relative apoptosis values for the samples measured after 24, 48 and 72 h.

Data set [7] concerns cell line DHL-4. The data set can be described thus: Relative apoptosis of cell line DHL-4 by FACS analysis. Format: cell-based. To be noted: culture = 0%.
Source text: as §1
DMSO, the solvent of EA and cic, was given to the cell line DHL-4 in a ratio of 1:100, as control. The values are related to the culture-control and expressed as mean±standard error of the mean (SEM) taken from 5 separate measurements. In FIG. 10 (A) samples were measured after 24, 48 and 72 h. After 0 h, the time of execution, the relative apoptosis was defined as 0% for all samples. In FIG. 10 (B) the relative apoptosis values for the samples measured after 24, 48 and 72 h.

Data set [8] concerns cell line LAM-53. Briefly: Relative viability of cell line LAM-53 by FACS analysis. Format: cell-based. To be noted: culture = 100%; for viability at 30 µM: 30 μM EA.
Source text: as §1
DMSO, the solvent of EA and cic, was given to the cell line LAM-53 in a ratio of 1:100, as control. The values are related to the culture-control and expressed as mean±standard error of the mean (SEM) taken from 5 separate measurements. In FIG. 7 (A) samples were measured after 24, 48 and 72 h. After 0 h, the time of execution, the relative viability was defined as 100% for all samples. In FIG. 7 (B) the relative viability values for the samples measured after 24, 48 and 72 h.

Data set [9] in a line: Relative viability of PBMCs by FACS analysis. Format: cell-based. The following applies: culture = 100%.
Source text: as §1
DMSO, the solvent of EA and cic, was given to the PBMCs in a ratio of 1:100, as control. The values are related to the culture-control and expressed as mean±standard error of the mean (SEM) taken from 5 separate measurements. In FIG. 5 (A) samples were measured after 24, 48 and 72 h. After 0 h, the time of execution, the relative viability was defined as […]) for all samples. In FIG. 5 (B) the relative viability values for the samples measured after 24, 48 and 72 h.

The subject of data set [10] is cell line Raji. The data set can be described thus: Relative apoptosis of cell line Raji by FACS analysis. Format: cell-based. To be noted: culture = 0%.
Source text: as §1
DMSO, the solvent of EA and cic, was given to the cell line Raji in a ratio of 1:100, as control. The values are related to the culture-control and expressed as mean±standard error of the mean (SEM) taken from 5 separate measurements. In FIG. 14 (A) samples were measured after 24, 48 and 72 h. After 0 h, the time of execution, the relative apoptosis was defined as 0% for all samples. In FIG. 14 (B) the relative apoptosis values for the samples measured after 24, 48 and 72 h.

For data set [11], the system named is PBMCs. The data set can be described thus: Relative apoptosis of PBMCs by FACS analysis. It is filed as cell-based. To be noted: culture = 0%.
Source text: as §1
DMSO, the solvent of EA and cic, was given to the PBMCs in a ratio of 1:100, as control. The values are related to the culture-control and expressed as mean±standard error of the mean (SEM) taken from 5 separate measurements. In FIG. 6 (A) samples were measured after 24, 48 and 72 h. After 0 h, the time of execution, the relative apoptosis was defined as 0% for all samples. In FIG. 6 (B) the relative apoptosis values for the samples measured after 24, 48 and 72 h.

The conditions of data set [12]: per day; cited from earlier work.

Take `Cc1cc(C2CCCCC2)n(O)c(=O)c1` [Ciclopirox, 6-cyclohexyl-1-hydroxy-4-methyl-1,2-dihydropyridin-2-one]: the solubility in methanol entry in data set [1] (methanol) is recorded as “soluble”.
For `C=C(CC)C(=O)c1ccc(OCC(=O)O)c(Cl)c1Cl` [EA, 2-[2,3-dichloro-4-(2-methylidenebutanoyl)phenoxy]acetic acid], the viability at 30 µM in [2] (24 h) worked out at 96.4%; in data set [2] (48 h), 84.2%; in [2] (72 h) it was 58%; in data set [4] (24 h), 95.7%; in data set [4] (48 h) it was 90.7%; in data set [4] (72 h), 78.9%. The viability at 30 µM stood at 91.7% in [5] (24 h); 96% in [5] (48 h); 97.6% in data set [5] (72 h); 96.7% in data set [8] (24 h); 96.2% in data set [8] (48 h); 91% in data set [8] (72 h). Further, the relative apoptosis is listed as 0.7% in [3] (30 μM EA, 24 h); 1.5% in data set [3] (30 μM EA, 48 h); 1.8% in data set [3] (30 μM EA, 72 h); 2.3% in [6] (30 μM EA, 24 h); 7.5% in data set [6] (30 μM EA, 48 h); 13.4% in data set [6] (30 μM EA, 72 h). Moreover, the relative apoptosis is reported as 6.7% in [7] (30 μM EA, 24 h); 2.0% in data set [7] (30 μM EA, 48 h); 1.2% in data set [7] (30 μM EA, 72 h); 2.4% in [10] (30 μM EA, 24 h); 4.8% in [10] (30 μM EA, 48 h); 9.8% in data set [10] (30 μM EA, 72 h). The relative apoptosis was found to be 1.3% in [11] (30 μM EA, 24 h); 3.9% in data set [11] (30 μM EA, 48 h); 7.6% in data set [11] (30 μM EA, 72 h). Moreover, the “solubility in most organic solvents” value in data set [1] (e.g. alcohols, chloroform, and benzene) is reported as “soluble”. Also, the solubility in water entry in [1] (water) is given as “slightly soluble”. For the same molecule, the viability at 24 h, 30 μM in [9] (30 μM EA, 24 h) is 98.9%. In data set [9] (30 μM EA, 48 h), the viability at 48 h, 30 μM was 94.9%. The viability at 72 h, 30 μM in [9] (30 μM EA, 72 h) came out at 89.5%.
Take `Cc1cc(C2CCCCC2)n(O)c(=O)c1` [cic, Ciclopirox olamine]: the viability at 10 µM in [2] (24 h) is 93.6%; in data set [2] (48 h), 72.5%; in [2] (72 h), 29.4%; in [4] (24 h) it was 83.8%; in [4] (48 h), 45.6%; in data set [4] (72 h), 21.7%. The viability at 10 µM is 93% in [5] (24 h); 90.3% in data set [5] (48 h); 55.9% in data set [5] (72 h); 76.2% in data set [8] (24 h, 10 μM cic); 32.4% in [8] (72 h, 10 μM cic). Further, the relative apoptosis is reported as 12.2% in data set [3] (10 μM cic, 24 h); 34.4% in [3] (10 μM cic, 48 h); 51.2% in data set [3] (10 μM cic, 72 h); 4.0% in [6] (10 μM cic, 24 h); 15.3% in [6] (10 μM cic, 48 h); 34.8% in [6] (10 μM cic, 72 h). Further, the relative apoptosis in data set [7] (10 μM cic, 24 h) is given as 5.8%; in data set [7] (10 μM cic, 48 h) it was 5.0%; in data set [7] (10 μM cic, 72 h), 30.8%; in [10] (10 μM cic, 24 h), 14.1%; in data set [10] (10 μM cic, 48 h), 31.0%; in data set [10] (10 μM cic, 72 h), 30.0%. Besides, the relative apoptosis in data set [11] (10 μM cic, 24 h) worked out at 0.4%; in data set [11] (10 μM cic, 48 h), 1.4%; in data set [11] (10 μM cic, 72 h), 3.3%. This molecule also had a relative viability in [8] (10 μM cic, 48 h) of 52.9%. The molecule also gave a viability at 24 h, 10 μM in data set [9] (10 μM cic, 24 h) of 99.3%. This molecule registered a viability at 48 h, 10 μM in data set [9] (10 μM cic, 48 h) of 98.3%. This molecule gave a viability at 72 h, 10 μM in data set [9] (10 μM cic, 72 h) of 94.4%. Moreover, the “maximum concentration in human systemic tolerability studies” value in [12] is 275 µM.
